From US20130190376A1, “METHODS OF USE OF SMALL MOLECULE MODULATORS OF HEPATOCYTE GROWTH FACTOR (SCATTER FACTOR) ACTIVITY” (priority 2010, published 2013)

Tests used:
HUVECs = assay: Nitric oxide production in endothelial cells (DAF 2-DA fluorescence); assay type: cell-based, human; conditions: HUVECs incubated 24 hours
Description: c. HGF and compounds of the invention stimulate nitric oxide production in endothelial cells. HUVECs are incubated with either vehicle, HGF/SF, instant compounds, or SNAP for 24 hours, loaded with the nitric oxide-sensitive fluorescence indicator DAF 2-DA and imaged under a laser scanning confocal microscope.

MDCK cells = assay: Anti-apoptotic activity in cultured cell lines (adriamycin); assay type: cell-based; conditions: pretreatment; HUVEC and MDCK cell lines
From the text: a. HGF/SF and instant compounds have significant anti-apoptotic activity in cultured cell lines.

LX2 cells = assay: Antifibrotic activity in hepatic stellate cells; assay type: cell-based, human; conditions: serum starved (activated) LX2 cells
From the text: a. Antifibrotic Activity in Hepatic Stellate Cells.

| Compound | nitric oxide production (DAF 2-DA fluorescence) (HUVECs) | cell viability (MDCK cells) | collagen I mRNA expression (LX2 cells) |
| --- | --- | --- | --- |
| CC(=O)N[C@@H](C(=O)O)C(C)(C)SN=O (racemic) [SNAP, reference compound] | significant increase in fluorescence |  |  |
| HGF/SF: Scatter factor, also known as hepatocyte growth factor; pleiotropic growth factor, heparin-binding heterodimeric protein | significant increase in fluorescence | significantly improves the cell viability | decrease in collagen I mRNA expression |
